Assays:
[1] = tested on: mouse bone marrow mesenchymal stem cell line (MSC-1 cells), PDGFRα-positive; experiment: Migration assay (Boyden / 48-well chemotaxis chamber) on bone marrow mesenchymal stem cell line MSC-1; format: cell-based
Method in brief: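 Mouse MSC-1 cells (3×10^6 cells/ml in D-MEM with 10% FBS) loaded in the upper wells of a 48-well Boyden chamber with 8 μm polycarbonate membrane; mouse HMGB1 peptides or HEK293-made HMGB1 in lower wells at 100 μg/ml, 5 μM or 10 μM; PBS as negative control. After 4 h at 37° C, migrated cells were Diff-Quik stained.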

[2] = tested on: CD11b-negative, PDGFRα-positive cells (primary cultured bone marrow mesenchymal cells); experiment: Migration assay on primary cultured CD11b-negative, PDGFRα-positive bone marrow cells; format: cell-based, mouse; details: peptide produced in HEK293, 40 μg/ml, FIG. 5
Method: Thigh and tibial bones were excised from donor mice: B6.129S4-Pdgfratm11(EGFP)Sor/J (PDGFRα-GFP Mouse). After removing attached muscles and other tissues, the bones were crushed finely and incubated with 0.2% collagenase (Roche, REF: 10103586001)/DMEM/2% FBS(filtrated) at 37° C. for 40 minutes. Then, cell aggregates and muscle tissues were removed by filtration through a 40-μm nylon mesh. After centrifugation at 1200 rpm for 10 minutes, the resulting cells were suspended in αMEM containing 10% FBS and 1% P/S and cultured in an incubator under 5% CO2 at 37° C. until they reached 100% confluence. The cells were harvested and the following experiment was carried out according to the protocol attached to CD11b MicroBeads (Miltenyi Biotec; order No: 130-049-601). The cells were adjusted to 10^7 cells/90 μl with PBS(−), and CD11b MicroBeads were added at 10 μl/10^7 cells. After 15 minutes of reaction at 4° C., the cells were washed twice and suspended in 500 μl of PBS(−). The tube was placed in AutoMACS separator and the cells were collected according to the separation program “Depletes”. The collected cells were plated onto an adherent cell culture dish. After adhesion, GFP fluorescence was observed using a fluorescence microscope. The above-described peptide 1-44 produced in HEK293 was tested for the migration-promoting activity using CD11b-negative cells. […]

[3] = Side effects after administration of recombinant HMGB1 (previous studies of the inventors); format: in vivo; details: high concentration administered to mice or rats
Source text: As described above, HMGB1 pharmaceuticals are revolutionary therapeutic agents that promote the recruitment of bone marrow mesenchymal stem cells into blood and accumulation of the cells to damaged tissues, thereby inducing tissue regeneration in the body. […] However, there are also reports that HMGB1 has an inflammatory effect. As described above, there are several findings on HMGB1; however, nothing is known about the effect of fragments of the HMGB1 protein on mesenchymal stem cells or what roles they play in tissue regeneration.

[4] = tested on: skin flap made on the back of a rat; experiment: Skin flap (skin damage) model on the back of rats; format: in vivo; details: two weeks after skin flap production; 50 μg/administration/day, five administrations, 15 SD rats per group, FIG. 26
Method: Experimental animals used were SD rats (male, eight weeks old). After sufficiently deep anesthesia by isoflurane inhalation, a rectangular skin incision of 3 cm width×7 cm length was made on the back. The cephalic side was left uncut, and the skin was thoroughly detached from the subcutaneous tissues. The three incised sides were sutured to the surrounding skin using #4 silk suture, and protected with Tegaderm (3M) to prevent bacterial infection.
The full-length mouse HMGB1 (100 μg/administration/day) produced in HEK293 and chemically synthesized HMGB1 peptide (amino acids 1 to 44; 50 μg/administration/day) were diluted to 200 μl with phosphate buffer and administered to rats via the caudal vein. The first administration was performed 6 hours after the surgery, and then the agents were administered every 24 hours a total of five times. Phosphate-buffered physiological saline was administered as a negative control. Tegaderm was removed after one week, and the wound region was observed weekly to measure the areas of necrosis and ulceration.
Experimental animals used were 15 SD rats (male, eight weeks old) per group. After sufficient anesthesia by isoflurane inhalation, a rectangular skin incision of 3 cm width×7 cm length was made on the back. The cephalic side was left uncut, and the skin was thoroughly detached from the subcutaneous tissues. The incised three sides were sutured to the surrounding skin using #4 silk suture, and protected with Tegaderm (3M) to prevent bacterial infection.
Chemically synthesized HMGB1 peptide (amino acids 1-44; 50 μg/administration/day) or HMGB1 peptide (amino acids 17-25; 50 μg/administration/day) was diluted to 200 μl with phosphate buffer and administered to the rats with experimental wound. The first administration was performed 6 hours after the surgery, and then the agents were administered every 24 hours a total of five times. Phosphate-buffered physiological saline was administered as a negative control. Tegaderm was removed after one week, and the wound was observed two weeks after the wound production. Uncured areas (ulceration and necrosis) were measured.

[5] = tested on: skin flap made on the back of a rat; experiment: Skin flap (skin damage) model on the back of rats; format: in vivo; details: six weeks after skin flap production; 50 μg/administration/day, five administrations, FIG. 26
mouse keratinocytes = experiment: Migration assay on mouse keratinocytes; format: cell-based; details: synthetic peptide, PDGFRα-negative cells, FIG. 12A
Method: Newborn C57/B16 mice were euthanized using isoflurane and carbon dioxide inhalation. Then, the mice were washed thoroughly with EtOH and PBS. The skin together with dermis was exfoliated and the blood was washed off with PBS. The exfoliated skin was placed in Dispase I (Sanko Junyaku Co., Cat: GD81060) at 4° C. for 16 hours. The epidermis and dermis were detached with forceps, and the epidermis was placed in trypsin (Nacalai tesque, Cat: 3554-64) at 37° C. for 10 minutes. When white turbidity began to appear, the reaction was stopped with S-MEM (GIBCO, Cat: 11380)/15% FBS(Ca-)P/S. The resulting cells were centrifuged at 160×G for 5 minutes, and suspended in CnT-07 medium (CELLnTEC, Cat: CnT-07 BM) and plated in a 10-cm dish. The cells were cultured under 5% CO2 at 37° C. and the medium was changed every three days. The cells were passaged when they reached 80% to 90% confluency. The cells were harvested from the dish using trypsin. After inactivation of trypsin with DMEM containing 10% FBS, a synthetic peptide consisting of the amino acid sequence of positions 1 to 34 (1-34) was examined for migration-promoting activity according to the migration assay method described above.

mouse skin fibroblasts = experiment: Migration assay on mouse skin fibroblasts; format: cell-based; details: synthetic peptide, PDGFRα-positive cells, FIG. 13A
Method: Newborn C57/B16 mice were euthanized using isoflurane and carbon dioxide inhalation. Then, the mice were washed thoroughly with EtOH and PBS. The skin together with dermis was exfoliated and the blood was washed off with PBS. The exfoliated skin was cut into fine pieces with scissors. The skin pieces were placed in DMEM (Nacalai tesque, Cat: 08458-45) containing 0.2% collagenase (Roche, REF: 10103586001) and shaken at 37° C. for 30 minutes. The reaction was stopped with DMEM/30% FBS/P/S. The resulting cells were centrifuged at 160×G for 5 minutes and plated in a 10-cm dish. The cells were cultured under 5% CO2 at 37° C. and the medium was changed every three days. The cells were passaged when they reached 80% to 90% confluency. The cells were harvested from the dish using trypsin. After inactivation of trypsin with D-MEM containing 10% FBS, a synthetic peptide consisting of the amino acid sequence of positions 1 to 34 (1-34) was assessed for migration-promoting activity according to the migration assay method described above.

[6] = 2 μM, area of migrated cells by image analysis, FIG. 10

For “1-44: peptide of positions 1 to 44 of mouse HMGB1, produced using HEK293 (MGKGDPKKPRGKMSSYAFFVQTCREEHKKKHPDASVNFSEFSKK; UniProt P63158 1-44, looked up, fragment)”, the “migration-promoting activity relative to the full-length HMGB1, compared per equal mass” value [1, 6] was “about 8 times”, the “migration-promoting activity relative to the full-length HMGB1, compared per equal mole” value [1, 6] was “about 1.6 times” and the migration-promoting activity ([1]; protein and peptides produced using HEK293 (mouse HMGB1), 50 μg/ml, 4 h, FIG. 2A) was “showed migration-promoting activity”. For the same substance, the migration-promoting activity [2] was “strong migration-promoting activity”.

For “recombinant HMGB1 protein: recombinant HMGB1 protein administered to mice or rats in the inventors' previous studies”, the side effects [3] was “no side effects were observed”.

With “(17-25): synthetic peptide consisting of the amino acid sequence from positions 17 to 25 of HMGB1 (AFFVQTCRE; UniProt P09429 17-25, looked up, fragment)” the migration-promoting activity ([1]; synthetic peptides, 5 μM, FIGS. 8A and 8B) was “weak activity”, the “ratio of the uncured area relative to the area of the whole skin flap, average” value [4] was 9.1% and the “ratio of the uncured area relative to the area of the whole skin flap, average” value [5] was 3.5%.

For “(1-34): synthetic peptide consisting of the amino acid sequence from positions 1 to 34 of HMGB1 (MGKGDPKKPRGKMSSYAFFVQTCREEHKKKHPDA; UniProt P09429 1-34, looked up, fragment)”, the migration-promoting activity ([1]; synthetic peptides, 100 μg/ml, positive control 1-215(HEK), FIG. 7) was “activity comparable to or higher than that of the positive control”, the “migration-promoting activity on mouse keratinocytes” value (mouse keratinocytes) was “did not show migration-promoting activity” and the “migration-promoting activity on skin fibroblasts” value (mouse skin fibroblasts) was “exhibited migration-promoting activity”.

Reference: patent US10550165B2, “Peptide for inducing regeneration of tissue and use thereof” (STEMRIM INC., priority 2011, dated 2020)
